# Measured values published in article PMC7377239, “Cardiovascular Effects of Polychlorinated Biphenyls and Their Major Metabolites” (Environmental Health Perspectives, 2020).
# Structures can show the parent of a compound that is named as a salt.
# Tested on: iPSC-CMs, iPSC-ECs and HUVECs phenotypes
# Test: ToxPi 2.0 integration of POD values and physicochemical descriptors
# Design: species or system human
# Conditions: ToxPi-scaled (0-1) score; for huvec.cyto.24hr / huvec.mito.24hr / huvec.mitoint.24hr / huvec.nma.24hr / huvec.tc.24hr / huvec.mtl.18hr / huvec.tlps.18hr / huvec.tta.18hr / huvec.ttl.18hr: HUVECs; for huvec.mtl.18hr / huvec.tlps.18hr / huvec.tta.18hr / huvec.ttl.18hr / endo.mtl.18hr / endo.tlps.18hr / endo.tta.18hr / endo.ttl.18hr: tube formation; for cm.amp.avg.90min / cm.amp.cv.90min / cm.bpm.90min / cm.cam.90min / cm.decay.rise.90min / cm.mii.90min / cm.mito.90min / cm.spacing.cv.90min / cm.tc.90min / cm.amp.avg.24hrs / cm.amp.cv.24hrs / cm.bpm.24hrs / cm.cam.24hrs / cm.decay.rise.24hrs / cm.mii.24hrs / cm.mito.24hrs / cm.spacing.cv.24hrs / cm.tc.24hrs: iPSC cardiomyocytes; for endo.cyto.24hr / endo.mito.24hr / endo.mitoint.24hr / endo.nma.24hr / endo.tc.24hr / endo.mtl.18hr / endo.tlps.18hr / endo.tta.18hr / endo.ttl.18hr: iPSC endothelial cells
# From the text: Phenotypic responses were quantitatively assessed using concentration–response modeling as detailed elsewhere ([Sirenko et al. 2017]). Briefly, phenotypic readouts were normalized to vehicle controls and fit to a four-parameter logistic model in R studio software (version 3.1.1; R Development Core Team). Following EPA guidance on dose–response modeling, a cutoff of one standard deviation across means of vehicle control (i.e., 0.5% vol/vol DMSO in cell culture media) wells was applied to determine the point-of-departure (POD) values ([U.S. EPA 2012]). In the absence of a concentration–response, the highest tested concentration (i.e., 100μM ) was assigned as “no observable adverse effect level.” The concentration–response assessment R script, as well as templates for vehicle and concentration–response data, are available as a supplement to Sirenko et al. ([2017]). The ability of physicochemical properties to predict differences in PODs were evaluated by multiregression and mixed-effects modeling using R.
# POD values were then integrated using ToxPi 2.0 ([Marvel et al. 2018]) software. In ToxPi, each slice is representative of cell type– and time-point–specific phenotypes. The area of each slice is proportional to the relative value (e.g., bioactivity or physicochemical descriptor value) of the chemical within the data set. ToxPi scores were used to rank PCBs and their metabolites according to their overall bioactivity and to determine variability in total observable biological responses and chemical characteristics for each major metabolite class and chlorination status (mono-, hexa-chlorinated). Additional visualizations such as dumbbell and principal components analysis plots were generated in R Studio (version 1.1.456; R version 3.5.1; R Development Core Team) using the ggplot2 package.
Compound,huvec.cyto.24hr,huvec.mito.24hr,huvec.mitoint.24hr,huvec.nma.24hr,huvec.tc.24hr,huvec.mtl.18hr,huvec.tlps.18hr,huvec.tta.18hr,huvec.ttl.18hr,cm.amp.avg.90min,cm.amp.cv.90min,cm.bpm.90min,cm.cam.90min,cm.decay.rise.90min,cm.mii.90min,cm.mito.90min,cm.spacing.cv.90min,cm.tc.90min,cm.amp.avg.24hrs,cm.amp.cv.24hrs,other results
Oc1ccc(-c2ccc(Cl)cc2)cc1 [4'-OH-PCB 3],0.275,0.3852,0.4333,0.3408,0.275,0.9876,1,0.5814,0.4466,0.5917,0.3333,0.8225,0.8629,0.5699,0.6837,0.8821,0.08302,0.896,1,0.8417,cm.bpm.24hrs: 0.3262; cm.cam.24hrs: 0.1519; cm.decay.rise.24hrs: 0.2382; cm.mii.24hrs: 0.4953; cm.mito.24hrs: 0.213; cm.spacing.cv.24hrs: 0.1936; cm.tc.24hrs: 0.2201; endo.cyto.24hr: 0.1551; endo.mito.24hr: 0.1551; endo.mitoint.24hr: 0; endo.nma.24hr: 0; endo.tc.24hr: 0.1152; endo.mtl.18hr: 0.4612; endo.tlps.18hr: 1; endo.tta.18hr: 0.4055; endo.ttl.18hr: 0.4146
"COc1ccc(-c2ccc(Cl)cc2)cc1 [4'-OMe-PCB 3, 4′-methoxy-4-chlorobiphenyl]",0.2539,0.3347,0.2259,0.5435,0.2539,0.5905,0.1332,0.4823,0.3839,0.148,0.2333,0.4231,0,0,0,0,0.06946,0,0.1468,0,cm.bpm.24hrs: 0.4274; cm.cam.24hrs: 0.02517; cm.decay.rise.24hrs: 0.569; cm.mii.24hrs: 0; cm.mito.24hrs: 0; cm.spacing.cv.24hrs: 0.5026; cm.tc.24hrs: 0; endo.cyto.24hr: 0; endo.mito.24hr: 0; endo.mitoint.24hr: 0.218; endo.nma.24hr: 0; endo.tc.24hr: 0; endo.mtl.18hr: 0.3533; endo.tlps.18hr: 0.3362; endo.tta.18hr: 0.2327; endo.ttl.18hr: 0.2433
O=S(=O)(O)Oc1ccc(-c2ccc(Cl)cc2)cc1 [4'-PCB 3 sulfate],0,0,0,0,0,0.4903,0,0.272,0,0.6628,0.2569,0.1909,0,0.4625,0,0,0.1039,0,0,0,cm.bpm.24hrs: 0; cm.cam.24hrs: 0; cm.decay.rise.24hrs: 0; cm.mii.24hrs: 0.1652; cm.mito.24hrs: 0; cm.spacing.cv.24hrs: 0; cm.tc.24hrs: 0; endo.cyto.24hr: 0; endo.mito.24hr: 0; endo.mitoint.24hr: 0; endo.nma.24hr: 0; endo.tc.24hr: 0; endo.mtl.18hr: 0.3281; endo.tlps.18hr: 0.3444; endo.tta.18hr: 0.1625; endo.ttl.18hr: 0.2037
"O=C1C=CC(=O)C(c2ccc(Cl)cc2)=C1 [4-Cl-BQ, 2-(4-Chlorophenyl)benzo-2,5-quinone]",1,0.8466,0.9878,0.6676,1,0.9933,0.5585,1,0.8997,0.3159,0.2492,0.1564,0.4034,0.215,0.8851,0.387,0.3114,0,0.3257,0.3094,cm.bpm.24hrs: 0.6578; cm.cam.24hrs: 1; cm.decay.rise.24hrs: 0.8647; cm.mii.24hrs: 0.2031; cm.mito.24hrs: 0.702; cm.spacing.cv.24hrs: 0.7459; cm.tc.24hrs: 0; endo.cyto.24hr: 0.5702; endo.mito.24hr: 0.5702; endo.mitoint.24hr: 0.2683; endo.nma.24hr: 0.3599; endo.tc.24hr: 0.6463; endo.mtl.18hr: 0.5822; endo.tlps.18hr: 0.7309; endo.tta.18hr: 0.1339; endo.ttl.18hr: 0.1969
Oc1ccc(-c2cccc(Cl)c2)cc1Cl [4-OH-PCB 11],0.4438,0.5256,0.5773,0.5884,0.4438,0.5918,0.1971,0,0.4794,0.7012,0.353,0.1603,0.5301,0.5246,0.417,0.3722,0.09289,0.417,0,0.6637,cm.bpm.24hrs: 0.3605; cm.cam.24hrs: 0.33; cm.decay.rise.24hrs: 0.2928; cm.mii.24hrs: 0.2219; cm.mito.24hrs: 0.5458; cm.spacing.cv.24hrs: 0.4379; cm.tc.24hrs: 0.5639; endo.cyto.24hr: 0.145; endo.mito.24hr: 0.145; endo.mitoint.24hr: 0.2813; endo.nma.24hr: 0.4122; endo.tc.24hr: 0.08397; endo.mtl.18hr: 0.181; endo.tlps.18hr: 0.1031; endo.tta.18hr: 0.1681; endo.ttl.18hr: 0.1683
Oc1cc(Cl)c(-c2cc(Cl)ccc2Cl)cc1Cl [4-OH-PCB 52],0.4769,0.5351,0.7457,0,0.4769,0.5555,0.604,0.1308,0.07185,0.2901,0.2696,1,1,0.2017,0.2919,1,0.1401,1,0.1949,0.09883,cm.bpm.24hrs: 0.4544; cm.cam.24hrs: 0.15; cm.decay.rise.24hrs: 0.2583; cm.mii.24hrs: 0.1136; cm.mito.24hrs: 0.2161; cm.spacing.cv.24hrs: 0.3488; cm.tc.24hrs: 0.2027; endo.cyto.24hr: 0.3535; endo.mito.24hr: 0.3535; endo.mitoint.24hr: 0.1136; endo.nma.24hr: 0.0802; endo.tc.24hr: 0.3161; endo.mtl.18hr: 0.2459; endo.tlps.18hr: 0.3982; endo.tta.18hr: 0.1729; endo.ttl.18hr: 0.1737
"COc1ccc(-c2cccc(Cl)c2)cc1Cl [4-OMe-PCB 11, 4-methoxy-3,3′-dichlorobiphenyl]",0.2668,0.3305,0.3626,0.3507,0.2668,0.5304,0.2567,0,0.6633,0.6528,0.2486,0.4773,0.4476,0.5303,0.1771,0.5027,0.1369,0.5138,0.152,0.06047,cm.bpm.24hrs: 0.441; cm.cam.24hrs: 0.1329; cm.decay.rise.24hrs: 0.2452; cm.mii.24hrs: 0.5873; cm.mito.24hrs: 0.2518; cm.spacing.cv.24hrs: 0.1755; cm.tc.24hrs: 0.2526; endo.cyto.24hr: 0; endo.mito.24hr: 0; endo.mitoint.24hr: 0; endo.nma.24hr: 0; endo.tc.24hr: 0; endo.mtl.18hr: 0; endo.tlps.18hr: 0.2016; endo.tta.18hr: 1; endo.ttl.18hr: 1
